Data on seven cell lines can be found in the supplement of paper PMC10307832.

Common to all, as to assay: relative viability (nuclei count vs DMSO), 5 days (fraction); higher = more cells survive
Compound in the assay “Decitabine + Linsitinib”: Nc1ncn([C@H]2C[C@H](O)[C@@H](CO)O2)c(=O)n1 [Decitabine] + C[C@]1(O)C[C@@H](c2nc(-c3ccc4ccc(-c5ccccc5)nc4c3)c3c(N)nccn32)C1 [Linsitinib] (partner 1 µM)
In outline:
(§1)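 For relative viability, nuclei counts in treated wells were divided by those in vehicle wells. Lung cancer cell lines had been pin-tool dosed in 1536-well plates the day after seeding and cultured for 5 days, then fixed and stained in one step (final 0.05% Triton X-100, 1% formaldehyde, 1 ug/ml Hoechst) and imaged at 4×. Doses were one drug alone or a fixed anchor-drug dose plus five library-drug doses (not always all listed) in √10 steps, and values are duplicate-plate medians.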

Compound in the assay “Halofuginone + OSI-027”: O=C(C[C@H]1NCCC[C@@H]1O)Cn1cnc2cc(Br)c(Cl)cc2c1=O (racemic) [Halofuginone] + COc1cccc2cc(-c3nc([C@H]4CC[C@H](C(=O)O)CC4)n4ncnc(N)c34)[nH]c12 [OSI-027] (partner 0.5 µM)
In outline: as §1

Compound in the assay “Cediranib + Trametinib”: COc1cc2c(Oc3ccc4[nH]c(C)cc4c3F)ncnc2cc1OCCCN1CCCC1 [Cediranib] + CC(=O)Nc1cccc(-n2c(=O)n(C3CC3)c(=O)c3c(Nc4ccc(I)cc4F)n(C)c(=O)c(C)c32)c1 [Trametinib] (partner 0.02 µM)
In outline: as §1

Compound in assay [1]: O=C(C[C@H]1NCCC[C@@H]1O)Cn1cnc2cc(Br)c(Cl)cc2c1=O (racemic) [Halofuginone] + O=C(CCCCCCC(=O)Nc1ccccc1)NO [Vorinostat] (partner 1 µM)
In outline: as §1

As for NCI-H1355, the relative viability is 0.663 with Decitabine + Linsitinib (first compound 0.04 µM); 0.622 with Decitabine + Linsitinib (first compound 0.1265 µM); 0.52 in the assay with Decitabine + Linsitinib (first compound 0.4 µM); 0.348 in the assay with Decitabine + Linsitinib (first compound 1.265 µM); 0.827 with Decitabine + Linsitinib (first compound 4 µM); 0.41 with Halofuginone + OSI-027 (first compound 0.001 µM). For the same cell line, the relative viability was 0.423 with Halofuginone + OSI-027 (first compound 0.003162 µM); 0.393 with Halofuginone + OSI-027 (first compound 0.01 µM); 0.463 in the assay with Halofuginone + OSI-027 (first compound 0.03162 µM); 0.303 in the assay with Halofuginone + OSI-027 (first compound 0.1 µM); 0.401 with Cediranib + Trametinib (first compound 0.04 µM); 0.432 in the assay with Cediranib + Trametinib (first compound 0.1265 µM). The relative viability with Cediranib + Trametinib (first compound 0.4 µM) amounted to 0.417; with Cediranib + Trametinib (first compound 1.265 µM), 0.439; with Cediranib + Trametinib (first compound 4 µM), 0.464; in assay [1] (first compound 0.001 µM), 0.688; in assay [1] (first compound 0.003162 µM), 0.648; in assay [1] (first compound 0.01 µM), 0.596. Moreover, the relative viability in assay [1] (first compound 0.03162 µM) amounted to 0.663; in assay [1] (first compound 0.1 µM), 0.561.

As for SW 1573, the relative viability in the assay with Decitabine + Linsitinib (first compound 0.04 µM) is 0.666; with Decitabine + Linsitinib (first compound 0.1265 µM), 0.793; with Decitabine + Linsitinib (first compound 0.4 µM), 0.697; with Decitabine + Linsitinib (first compound 1.265 µM), 0.408; with Decitabine + Linsitinib (first compound 4 µM), 0.392; with Halofuginone + OSI-027 (first compound 0.001 µM), 0.919. Moreover, the relative viability came out at 0.85 in the assay with Halofuginone + OSI-027 (first compound 0.003162 µM); 0.571 with Halofuginone + OSI-027 (first compound 0.01 µM); 0.509 with Halofuginone + OSI-027 (first compound 0.03162 µM); 0.143 with Halofuginone + OSI-027 (first compound 0.1 µM); 0.667 with Cediranib + Trametinib (first compound 0.04 µM); 0.624 with Cediranib + Trametinib (first compound 0.1265 µM). The relative viability amounted to 0.57 in the assay with Cediranib + Trametinib (first compound 0.4 µM); 0.55 with Cediranib + Trametinib (first compound 1.265 µM); 0.496 with Cediranib + Trametinib (first compound 4 µM); 1.27 in assay [1] (first compound 0.001 µM); 0.775 in assay [1] (first compound 0.01 µM); 0.601 in assay [1] (first compound 0.03162 µM). The relative viability in assay [1] (first compound 0.1 µM) came out at 0.167.

NCI-H661: the relative viability turned out to be 0.566 with Decitabine + Linsitinib (first compound 0.04 µM); 0.502 with Decitabine + Linsitinib (first compound 0.1265 µM); 0.406 with Decitabine + Linsitinib (first compound 0.4 µM); 0.248 in the assay with Decitabine + Linsitinib (first compound 1.265 µM); 0.267 with Decitabine + Linsitinib (first compound 4 µM); 0.776 with Halofuginone + OSI-027 (first compound 0.001 µM). Also, the relative viability with Halofuginone + OSI-027 (first compound 0.003162 µM) was found to be 0.685; in the assay with Halofuginone + OSI-027 (first compound 0.01 µM), 0.679; with Halofuginone + OSI-027 (first compound 0.03162 µM), 0.611; in the assay with Halofuginone + OSI-027 (first compound 0.1 µM), 0.499; with Cediranib + Trametinib (first compound 0.04 µM) it was 0.609; with Cediranib + Trametinib (first compound 0.1265 µM), 0.751. The relative viability came out at 0.567 with Cediranib + Trametinib (first compound 0.4 µM); 0.522 with Cediranib + Trametinib (first compound 1.265 µM); 0.61 with Cediranib + Trametinib (first compound 4 µM); 0.773 in assay [1] (first compound 0.001 µM); 0.803 in assay [1] (first compound 0.003162 µM); 0.682 in assay [1] (first compound 0.01 µM). In addition, the relative viability in assay [1] (first compound 0.03162 µM) is 0.549; in assay [1] (first compound 0.1 µM), 0.491.

In the case of LU99A, the relative viability came to 0.45 in the assay with Decitabine + Linsitinib (first compound 0.04 µM); 0.584 in the assay with Decitabine + Linsitinib (first compound 0.1265 µM); 0.603 with Decitabine + Linsitinib (first compound 0.4 µM); 0.442 with Decitabine + Linsitinib (first compound 1.265 µM); 0.374 with Decitabine + Linsitinib (first compound 4 µM); 0.36 with Halofuginone + OSI-027 (first compound 0.001 µM). The relative viability with Halofuginone + OSI-027 (first compound 0.003162 µM) was 0.32; with Halofuginone + OSI-027 (first compound 0.01 µM), 0.281; with Halofuginone + OSI-027 (first compound 0.03162 µM), 0.288; in the assay with Halofuginone + OSI-027 (first compound 0.1 µM) it was 0.254; with Cediranib + Trametinib (first compound 0.04 µM), 0.553; with Cediranib + Trametinib (first compound 0.4 µM), 0.544. The relative viability turned out to be 0.515 with Cediranib + Trametinib (first compound 1.265 µM); 0.568 with Cediranib + Trametinib (first compound 4 µM); 0.482 in assay [1] (first compound 0.001 µM); 0.578 in assay [1] (first compound 0.003162 µM); 0.51 in assay [1] (first compound 0.01 µM); 0.479 in assay [1] (first compound 0.03162 µM). Further, the relative viability in assay [1] (first compound 0.1 µM) turned out to be 0.453.

Regarding LCLC-97TM1, the relative viability in the assay with Decitabine + Linsitinib (first compound 0.04 µM) came to 0.183; with Decitabine + Linsitinib (first compound 0.1265 µM), 0.199; in the assay with Decitabine + Linsitinib (first compound 0.4 µM), 0.166; with Decitabine + Linsitinib (first compound 1.265 µM), 0.116; with Decitabine + Linsitinib (first compound 4 µM), 0.213; with Halofuginone + OSI-027 (first compound 0.001 µM), 0.674. In addition, the relative viability with Halofuginone + OSI-027 (first compound 0.003162 µM) came to 0.612; in the assay with Halofuginone + OSI-027 (first compound 0.01 µM) it was 0.597; with Halofuginone + OSI-027 (first compound 0.03162 µM) it was 0.566; with Halofuginone + OSI-027 (first compound 0.1 µM), 0.358; in the assay with Cediranib + Trametinib (first compound 0.04 µM), 0.196; with Cediranib + Trametinib (first compound 0.4 µM), 0.207. In addition, the relative viability in the assay with Cediranib + Trametinib (first compound 1.265 µM) is 0.187; with Cediranib + Trametinib (first compound 4 µM) it was 0.214; in assay [1] (first compound 0.001 µM), 0.757; in assay [1] (first compound 0.003162 µM), 0.602; in assay [1] (first compound 0.01 µM) it was 0.726; in assay [1] (first compound 0.03162 µM), 0.622. For the same cell line, the relative viability in assay [1] (first compound 0.1 µM) amounted to 0.419.

As to LC-2-ad, the relative viability with Decitabine + Linsitinib (first compound 0.04 µM) is 0.732; with Decitabine + Linsitinib (first compound 0.1265 µM) it was 0.746; with Decitabine + Linsitinib (first compound 0.4 µM) it was 0.51; in the assay with Decitabine + Linsitinib (first compound 1.265 µM), 0.497; with Decitabine + Linsitinib (first compound 4 µM), 0.378; in the assay with Halofuginone + OSI-027 (first compound 0.001 µM) it was 0.903. In addition, the relative viability with Halofuginone + OSI-027 (first compound 0.003162 µM) is 0.888; in the assay with Halofuginone + OSI-027 (first compound 0.01 µM), 0.746; with Halofuginone + OSI-027 (first compound 0.03162 µM), 0.889; in the assay with Halofuginone + OSI-027 (first compound 0.1 µM), 0.608; with Cediranib + Trametinib (first compound 0.04 µM), 0.94; in the assay with Cediranib + Trametinib (first compound 0.1265 µM), 0.915. Moreover, the relative viability in the assay with Cediranib + Trametinib (first compound 0.4 µM) was found to be 0.901; with Cediranib + Trametinib (first compound 1.265 µM), 0.995; with Cediranib + Trametinib (first compound 4 µM), 0.841; in assay [1] (first compound 0.001 µM), 0.695; in assay [1] (first compound 0.003162 µM) it was 0.706; in assay [1] (first compound 0.01 µM), 0.69. The relative viability in assay [1] (first compound 0.03162 µM) came to 0.696; in assay [1] (first compound 0.1 µM) it was 0.686.

Consider NCI-H1395, for which the relative viability with Decitabine + Linsitinib (first compound 0.04 µM) stood at 0.768; with Decitabine + Linsitinib (first compound 0.1265 µM), 0.938; in the assay with Decitabine + Linsitinib (first compound 0.4 µM) it was 0.597; with Decitabine + Linsitinib (first compound 1.265 µM), 0.63; with Decitabine + Linsitinib (first compound 4 µM) it was 0.509; with Halofuginone + OSI-027 (first compound 0.001 µM), 0.665. Besides, the relative viability in the assay with Halofuginone + OSI-027 (first compound 0.003162 µM) came out at 0.656; with Halofuginone + OSI-027 (first compound 0.01 µM), 0.789; in the assay with Halofuginone + OSI-027 (first compound 0.03162 µM), 0.594; with Halofuginone + OSI-027 (first compound 0.1 µM) it was 0.683; in the assay with Cediranib + Trametinib (first compound 0.04 µM), 1.05; with Cediranib + Trametinib (first compound 0.1265 µM), 1.04. Besides, the relative viability with Cediranib + Trametinib (first compound 0.4 µM) was found to be 0.999; with Cediranib + Trametinib (first compound 1.265 µM), 0.954; with Cediranib + Trametinib (first compound 4 µM), 0.904; in assay [1] (first compound 0.001 µM), 0.741; in assay [1] (first compound 0.003162 µM), 0.682; in assay [1] (first compound 0.01 µM) it was 0.656. Moreover, the relative viability stood at 0.603 in assay [1] (first compound 0.03162 µM) and 0.49 in assay [1] (first compound 0.1 µM).
